Source: ChEMBL document CHEMBL1131639, “Structural analysis of thrombin complexed with potent inhibitors incorporating a phenyl group as a peptide mimetic and aminopyridines as guanidine substitutes” (J Med Chem, 1998)
Blank lines part the entries; values can stand above or below the compound they belong to. Where a SMILES comes first, the peptide text is derived from it.

Tests used:
[1] = target: Integrin alpha-IIb/beta-3 (Homo sapiens, UniProt P05106+P08514); experiment: Compound was evaluated for inhibition against Fibrinogen Receptor.; format: protein-complex assay
[2] = target: T1, Prothrombin (Homo sapiens, UniProt P00734); experiment: (§1) Compound was evaluated for the inhibition of thrombin
[3] = target: T1, Prothrombin; experiment: as §1; remark: listed apart in the source

Sequence of Integrin alpha-IIb/beta-3 (P05106 27-788 limits assumed): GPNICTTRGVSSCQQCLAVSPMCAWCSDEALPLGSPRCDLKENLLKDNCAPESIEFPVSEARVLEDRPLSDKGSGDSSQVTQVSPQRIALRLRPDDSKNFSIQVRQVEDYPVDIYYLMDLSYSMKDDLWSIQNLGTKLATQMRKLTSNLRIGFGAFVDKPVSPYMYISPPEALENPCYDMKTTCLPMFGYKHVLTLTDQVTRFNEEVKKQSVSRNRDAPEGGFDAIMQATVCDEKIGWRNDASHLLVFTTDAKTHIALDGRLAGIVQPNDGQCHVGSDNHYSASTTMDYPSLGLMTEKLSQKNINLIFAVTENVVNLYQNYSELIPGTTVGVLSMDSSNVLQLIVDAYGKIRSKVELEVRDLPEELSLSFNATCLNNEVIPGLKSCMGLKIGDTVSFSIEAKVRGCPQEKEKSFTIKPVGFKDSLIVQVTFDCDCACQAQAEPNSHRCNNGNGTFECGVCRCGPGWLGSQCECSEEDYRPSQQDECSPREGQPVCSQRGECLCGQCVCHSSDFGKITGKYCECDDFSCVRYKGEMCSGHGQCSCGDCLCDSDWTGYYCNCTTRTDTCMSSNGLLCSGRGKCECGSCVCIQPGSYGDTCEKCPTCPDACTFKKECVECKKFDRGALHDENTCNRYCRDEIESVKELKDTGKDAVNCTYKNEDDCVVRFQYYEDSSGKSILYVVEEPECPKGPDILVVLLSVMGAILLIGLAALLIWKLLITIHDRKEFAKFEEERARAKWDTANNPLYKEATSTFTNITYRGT
Sequence of Integrin alpha-IIb/beta-3 (P08514 32-887 limits assumed): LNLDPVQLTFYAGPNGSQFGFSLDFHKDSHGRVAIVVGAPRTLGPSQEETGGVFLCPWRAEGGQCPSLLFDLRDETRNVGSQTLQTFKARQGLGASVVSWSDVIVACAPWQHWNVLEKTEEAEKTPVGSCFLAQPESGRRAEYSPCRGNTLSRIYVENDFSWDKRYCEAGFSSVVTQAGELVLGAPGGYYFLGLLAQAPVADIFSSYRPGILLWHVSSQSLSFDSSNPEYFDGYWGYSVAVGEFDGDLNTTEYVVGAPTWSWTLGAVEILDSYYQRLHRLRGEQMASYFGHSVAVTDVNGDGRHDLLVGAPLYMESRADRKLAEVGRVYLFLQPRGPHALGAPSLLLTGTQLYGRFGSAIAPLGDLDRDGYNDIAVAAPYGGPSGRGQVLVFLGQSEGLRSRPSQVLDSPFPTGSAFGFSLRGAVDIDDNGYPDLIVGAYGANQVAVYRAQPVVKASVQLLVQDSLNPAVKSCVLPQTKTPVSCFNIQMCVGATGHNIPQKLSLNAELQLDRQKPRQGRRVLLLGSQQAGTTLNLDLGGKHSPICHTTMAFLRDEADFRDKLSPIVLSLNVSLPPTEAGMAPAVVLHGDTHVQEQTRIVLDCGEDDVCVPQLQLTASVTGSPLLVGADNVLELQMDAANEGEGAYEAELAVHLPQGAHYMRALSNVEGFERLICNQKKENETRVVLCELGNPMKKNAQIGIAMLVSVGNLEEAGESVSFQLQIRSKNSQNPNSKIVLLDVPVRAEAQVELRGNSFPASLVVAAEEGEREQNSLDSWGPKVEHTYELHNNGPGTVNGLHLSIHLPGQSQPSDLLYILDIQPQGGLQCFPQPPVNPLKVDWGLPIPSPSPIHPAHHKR
Sequence of Integrin alpha-IIb/beta-3 (P08514 891-1039 limits assumed): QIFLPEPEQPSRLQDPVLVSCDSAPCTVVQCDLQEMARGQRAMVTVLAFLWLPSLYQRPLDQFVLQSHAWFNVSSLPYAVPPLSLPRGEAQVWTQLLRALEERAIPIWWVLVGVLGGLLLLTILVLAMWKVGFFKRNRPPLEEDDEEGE

IC50 [1]: 1700 nM
SMILES: NC(N)=NCCCC[C@H](N)C(=O)NCC(=O)N[C@@H](CC(=O)O)C(=O)N[C@@H](Cc1cc2ccccc2[nH]1)C(=O)O (HELM PEPTIDE1{[N=C(N)NCCCC[C@H](N)C(=O)[*:2]].G.D.[O=C(O)[C@H](Cc1cc2ccccc2[nH]1)N[*:1]]}$$$$V2.0)

Ki0 [2]: 360 nM
SMILES: CC1CCN(C(=O)[C@H](CCCNc2ccc(N)cn2)NS(=O)(=O)c2cccc3c(N(C)C)cccc23)CC1

Ki [3]: 180 nM
SMILES: NC(N)=NCCCCNC(=O)[C@@H]1CCCN1C(=O)[C@H](N)Cc1ccccc1 (HELM PEPTIDE1{[dF].P.[N=C(N)NCCCCN[*:1]]}$$$$V2.0)
